# Measurements taken from article PMC8625065 (Molecules, 2021).
# Where a name gives a salt, the structure may show the parent alone.
# How the values were obtained:
# [1] = system: A549 (lung adenocarcinoma); experiment: MTT proliferation assay, 72 h; assay type: cell-based; settings: Homo sapiens, A549 cells
# Protocol: (§1) The cell lines HeLa (cervical carcinoma), SW620 (colorectal adenocarcinoma, metastatic), A549 (lung adenocarcinoma), HepG2 (hepatocellular carcinoma) and HFF (human foreskin fibroblasts) were cultured as monolayers and maintained in Dulbecco’s modified Eagle medium (DMEM), supplemented with 10% fetal bovine serum (FBS), 2mM L-glutamine, 100 U/mL penicillin and 100 μg/mL streptomycin in a humidified atmosphere with 5% CO2 at 37 °C.
# (§2) Cells were seeded onto 96-well microtiter plates at a seeding density of 3000 cells/well for carcinoma cell lines, and 5000 cells/well for normal human fibroblasts. The next day, cells were treated with test agents at five different concentrations (0.01–100 µM) and further incubated for 72 h. […] Following 72 h incubation, the MTT assay was performed and measured absorbances were transformed into percentage of cell growth as described previously. Results were obtained from three independent experiments.
# [2] = system: HeLa (cervical carcinoma); experiment: MTT proliferation assay, 72 h; assay type: cell-based, human; settings: Homo sapiens; HeLa cells, MTT, 72 h
# Protocol: as §1, §2
# [3] = system: HepG2 (hepatocellular carcinoma); experiment: MTT proliferation assay, 72 h; assay type: cell-based, human; settings: Homo sapiens; HepG2 cells, MTT, 72 h
# Protocol: as §1, §2
# [4] = system: SW620 (colorectal adenocarcinoma, metastatic); experiment: MTT proliferation assay, 72 h; assay type: cell-based, human; settings: Homo sapiens, SW-620; SW620 cells, MTT, 72 h
# Protocol: as §1, §2
SMILES,IC50 [1] [µM],IC50 [2] [µM],IC50 [3] [µM],IC50 [4] [µM],melting point [°C]
"N#Cc1ccc2c(ccn2Cc2cn(-c3ccc(/C(N)=N/O)cc3)nn2)c1 [Compound 16, 1-((1-(4-((Z)-N′-Hydroxycarbamimidoyl)phenyl)-1H-1,2,3-triazol-4-yl)methyl)-5-cyanoindole]",> 100,> 100,> 100,> 100,–
"c1cc(-n2cc(Cn3ccc4cc(C5=NCCN5)ccc43)nn2)ccc1C1=NCCN1 [Compound 7, 1-((1-(4-(Dihydro-1H-imidazol-2-yl)phenyl)-1H-1,2,3-triazol-4-yl)methyl)-5-(dihydro-1H-imidazol-2-yl)-1H-indole dihydrochloride]",> 100,> 100,69.1,49.8,–
"N/C(=N\O)c1ccc(-n2cc(Cn3ccc4cc(/C(N)=N/O)ccc43)nn2)cc1 [Compound 17, (Z)-N′-hydroxy-1-((1-(4-((Z)-N′-hydroxycarbamimidoyl)phenyl)-1H-1,2,3-triazol-4-yl)methyl)-indole-5-carboximidamide]",> 100,60.7,> 100,> 100,232 to 234
"N#Cc1cccc2c1ccn2Cc1cn(-c2ccc(/C(N)=N/O)cc2)nn1 [Compound 14, 1-((1-(4-((Z)-N′-Hydroxycarbamimidoyl)phenyl)-1H-1,2,3-triazol-4-yl)methyl)-4-cyanoindole]",> 100,65.8,> 100,> 100,–
"c1cc(C2=NCCN2)c2ccn(Cc3cn(-c4ccc(C5=NCCN5)cc4)nn3)c2c1 (as salt: hydrochloride) [Compound 6, 1-((1-(4-(Dihydro-1H-imidazol-2-yl)phenyl)-1H-1,2,3-triazol-4-yl)methyl)-4-(dihydro-1H-imidazol-2-yl)-1H-indole dihydrochloride]",–,–,–,–,> 250
"N/C(=N\O)c1ccc(-n2cc(COc3ccc4ccc(=O)oc4c3)nn2)cc1 [Compound 22, 7-((1-(4-((Z)-N′-Hydroxycarbamimidoyl)phenyl)-1H-1,2,3-triazol-4-yl)methoxy)coumarin]",> 100,87.4,91.4,> 100,232 to 235
"c1cc(-n2cc(Cn3ccc4cc(C5=NCCN5)ccc43)nn2)ccc1C1=NCCN1 (as salt: hydrochloride) [Compound 7, 1-((1-(4-(Dihydro-1H-imidazol-2-yl)phenyl)-1H-1,2,3-triazol-4-yl)methyl)-5-(dihydro-1H-imidazol-2-yl)-1H-indole dihydrochloride]",–,–,–,–,228 to 231

# Continued, values first:
IC50 [1] [µM],IC50 [2] [µM],IC50 [3] [µM],IC50 [4] [µM],melting point [°C],SMILES
> 100,99.7,> 100,> 100,235 to 237,"N/C(=N\O)c1ccc(-n2cc(COc3cc(=O)oc4ccccc34)nn2)cc1 [Compound 21, 4-((1-(4-((Z)-N′-Hydroxycarbamimidoyl)phenyl)-1H-1,2,3-triazol-4-yl)methoxy)coumarin]"
> 100,> 100,> 100,65.1,222 to 225,"N#Cc1ccc(NCc2cn(-c3ccc(/C(N)=N/O)cc3)nn2)cc1 [Compound 12, 4-(((1-(4-((Z)-N′-Hydroxycarbamimidoyl)phenyl)-1H-1,2,3-triazol-4-yl)methyl)amino)benzonitrile]"
76.7,64.5,> 100,72.7,230 to 232,"N/C(=N\O)c1ccc(-n2cc(COc3cccc4cccnc34)nn2)cc1 [Compound 19, 8-((1-(4-((Z)-N′-Hydroxycarbamimidoyl)phenyl)-1H-1,2,3-triazol-4-yl)methoxy)quinoline]"
2.8,8.81,–,0.08,–,"O=c1[nH]cc(F)c(=O)[nH]1 [Compound 5-FU, 5-Fluorouracil, reference compound]"
